The values below come from PubChem BioAssay (NCI).

Structures are written as SMILES.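 Assay format: 96-well plates, 48-hour exposure. GI50 = concentration required for 50% inhibition of growth. TGI is the concentration that stops growth completely.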 Non-standard residues stand in square brackets, D forms with d. Residues, ends and D or L forms follow the SMILES beside them. *: point of attachment. ONb = O=[N+]([O-])c1ccc(CO*)cc1; AllylGly = C=CC[CH](N)C(=O)O; Boc = CC(C)(C)OC(=O)*

Among the test systems are HCT-15 colon; MALME-3M melanoma; IGROV1 ovarian; HS 578T breast; HT29 colon; KM12 colon; CAKI-1 renal; 786-0 renal; SF-539 CNS; NCI-H226 lung.
Holding throughout (test): inhibition of tumour cell growth, NCI panel, 48 h

For `N#CCC1COc2ccccc2O1` (configuration not stated), the TGI in the assay on HCT-15 colon, in the assay on MALME-3M melanoma, in the assay on IGROV1 ovarian, with HS 578T breast, in the assay on HT29 colon and with KM12 colon was above 10 µM throughout. In addition, the TGI in the assay on CAKI-1 renal, in the assay with 786-0 renal and with SF-539 CNS was above 10 µM in each case.
With `C=CCC(NC(=O)OC(C)(C)C)C(=O)NC(CCC(=O)OCc1ccc([N+](=O)[O-])cc1)C(N)=O` (configuration not stated) (Boc-[AllylGly]-Glu(ONb)-NH2; configuration not given here), the GI50 in the assay with MALME-3M melanoma was 18.4 µg/mL; with IGROV1 ovarian, 34.1 µg/mL; with HS 578T breast, 19.8 µg/mL; in the assay on CAKI-1 renal it was 19.1 µg/mL; in the assay on 786-0 renal, 21.9 µg/mL; in the assay on SF-539 CNS, 20.6 µg/mL. The TGI in the assay with MALME-3M melanoma was 33.1 µg/mL; in the assay with HS 578T breast it was 45.5 µg/mL; with CAKI-1 renal, 54.5 µg/mL; in the assay with 786-0 renal it was 52 µg/mL; in the assay with SF-539 CNS it was 37.6 µg/mL.
With `CCC[CH2][Sn-]([CH2]CCC)([CH2]CCC)[O]c1cc(Cl)c(Cl)cc1Cl`, the GI50 was 0.165 µM in the assay with HCT-15 colon; 0.174 µM with MALME-3M melanoma; 0.162 µM with IGROV1 ovarian; 0.00467 µM in the assay on HS 578T breast; 0.00872 µM with NCI-H226 lung; 0.162 µM in the assay with HT29 colon. Further, the GI50 with KM12 colon is 0.195 µM; in the assay with 786-0 renal it was 0.163 µM; in the assay on SF-539 CNS it was 0.267 µM. Moreover, the TGI with HCT-15 colon was 0.33 µM; with MALME-3M melanoma it was 0.379 µM; in the assay on IGROV1 ovarian, 0.379 µM; in the assay with HS 578T breast it was 0.212 µM; in the assay with NCI-H226 lung it was 0.244 µM; in the assay with HT29 colon it was 0.404 µM. In addition, the TGI in the assay with KM12 colon was found to be 0.402 µM; in the assay with 786-0 renal, 0.318 µM; with SF-539 CNS, 0.437 µM.
In the case of `COc1ccc(Cl)cc1Nc1nc(C(F)(F)F)ccc1C(=O)N/N=C/c1c(Cl)cccc1Cl`, the GI50 is 3.26 µM in the assay on HCT-15 colon; 3.46 µM with MALME-3M melanoma; 20.2 µM with HS 578T breast; 5.54 µM in the assay on NCI-H226 lung; above 100 µM in the assay with HT29 colon; 9.74 µM with CAKI-1 renal. In addition, the GI50 is 8.49 µM in the assay on 786-0 renal and 17.9 µM with SF-539 CNS. The TGI was above 100 µM in the assay with HCT-15 colon; 54.7 µM with MALME-3M melanoma; above 100 µM in the assay with HS 578T breast; above 100 µM with NCI-H226 lung; above 100 µM in the assay with HT29 colon; above 100 µM with CAKI-1 renal. The TGI in the assay on 786-0 renal and in the assay with SF-539 CNS was above 100 µM each time.
Take `COc1cc(CCc2ccc(OCCN(C)C)cc2)cc(OC)c1OC`: the TGI in the assay with HCT-15 colon, in the assay on MALME-3M melanoma, in the assay on IGROV1 ovarian, with NCI-H226 lung, with HT29 colon and in the assay with KM12 colon was above 100 µM in each case. Moreover, the TGI in the assay on CAKI-1 renal, in the assay on 786-0 renal and with SF-539 CNS was above 100 µM in each case.
Take `Cc1nc2c(nc1C)C(=O)c1cc(O)ccc1C2=O`: the TGI with HCT-15 colon is above 67.3 µM; in the assay on MALME-3M melanoma it was 43.7 µM; in the assay with IGROV1 ovarian it was above 100 µM; in the assay with NCI-H226 lung, above 100 µM; in the assay with HT29 colon it was above 87.2 µM; in the assay with KM12 colon, above 100 µM. The TGI in the assay on CAKI-1 renal, with 786-0 renal and in the assay on SF-539 CNS was above 100 µM in each case.
On to `O=c1oc2cc(OS(=O)(=O)c3ccc(F)cc3)ccc2c2c1CCCCC2`, for which the GI50 is above 100 µM in the assay with MALME-3M melanoma; above 100 µM with IGROV1 ovarian; 55.2 µM with HS 578T breast; above 100 µM in the assay on NCI-H226 lung; 1.04 µM in the assay on HT29 colon; above 100 µM in the assay with CAKI-1 renal. Besides, the GI50 with 786-0 renal and with SF-539 CNS was above 100 µM in each case. Moreover, the TGI with MALME-3M melanoma, with IGROV1 ovarian, in the assay with HS 578T breast, with NCI-H226 lung, in the assay with HT29 colon and in the assay on CAKI-1 renal was above 100 µM throughout. Moreover, the TGI in the assay with 786-0 renal and with SF-539 CNS was above 100 µM each time.
As to `Nc1ccn(CCOC(=O)c2ccccc2)c(=O)n1`, the TGI with HCT-15 colon, in the assay with MALME-3M melanoma, in the assay with IGROV1 ovarian, with NCI-H226 lung, with HT29 colon and in the assay with KM12 colon was above 100 µM each time. Also, the TGI in the assay on CAKI-1 renal, in the assay on 786-0 renal and with SF-539 CNS was above 100 µM each time.
On to `O=[N+]([O-])c1ccc(C(c2c[nH]c3ccccc23)c2c[nH]c3ccccc23)cc1`, for which the TGI came to 29.7 µM with HCT-15 colon; 37.6 µM in the assay with MALME-3M melanoma; 51.1 µM in the assay on HS 578T breast; 32.1 µM in the assay with NCI-H226 lung; 31.8 µM with HT29 colon; 28.1 µM in the assay on KM12 colon. Also, the TGI is 35.2 µM with 786-0 renal and 30.6 µM with SF-539 CNS.
With `COc1nc(N(C)O)nc(N(C)O)n1`, the GI50 with HCT-15 colon is 0.519 µM; in the assay on MALME-3M melanoma, 2.22 µM; in the assay on IGROV1 ovarian, 0.632 µM; in the assay on NCI-H226 lung, 2.48 µM; in the assay with HT29 colon it was 1.03 µM; in the assay on KM12 colon, 2.99 µM. Further, the GI50 is 0.491 µM in the assay with CAKI-1 renal, 3.74 µM with 786-0 renal and 1.26 µM with SF-539 CNS. Further, the TGI in the assay on HCT-15 colon was above 100 µM; in the assay on MALME-3M melanoma, 24 µM; in the assay on IGROV1 ovarian it was above 100 µM; in the assay with NCI-H226 lung it was 55.4 µM; in the assay on HT29 colon, above 100 µM; in the assay with KM12 colon, above 100 µM. For the same compound, the TGI with CAKI-1 renal was 17.3 µM; in the assay with 786-0 renal, 33.2 µM; with SF-539 CNS, 9.69 µM.
Turning to `Nn1c(-c2ccccc2)nc2ccc(Br)cc2c1=O`, the TGI in the assay on HCT-15 colon, in the assay with MALME-3M melanoma, with IGROV1 ovarian, with NCI-H226 lung, with HT29 colon and with KM12 colon was above 100 µM throughout. Moreover, the TGI in the assay with CAKI-1 renal, in the assay on 786-0 renal and with SF-539 CNS was above 100 µM throughout.
